Laboratory results: patent US6525001B1, “Substituted pyrimidine and pyridine herbicides” (Mid-American Commercialization Corporation, priority 1997, dated 2003)

How the values were obtained:
Assay type in all cases: in vivo
[1] = tested on: broadleaf signalgrass (Brachiaria decumbens); test: Test B pre-/postemergence; parameters: key: 0 is no effect; 10 is complete control
Summary of the method: (§1)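 Compounds in a surfactant-containing, non-phytotoxic solvent blend are applied to freshly planted seed (preemergence) and, concurrently, to seedlings of 2 to 18 cm at 1–4 leaves (postemergence). Plants stay in the greenhouse twelve to sixteen days and are then scored visually from 0 (no effect) to 10 (complete control).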

[2] = tested on: blackgrass (Alopecurus myosuroides); test: Test B pre-/postemergence; parameters: key: 0 is no effect; 10 is complete control
Summary of the method: as §1

[3] = tested on: cotton (Gossypium hirsutum); test: Test C; parameters: key: 0 was no effect; 100 was complete control; conditions: PREEMERGENCE
[4] = tested on: cocklebur (Xanthium strumarium); test: Test C; parameters: key: 0 was no effect; 100 was complete control; conditions: PREEMERGENCE
[5] = tested on: common ragweed (Ambrosia elatior); test: Test C; parameters: key: 0 was no effect; 100 was complete control; conditions: PREEMERGENCE
[6] = tested on: field bindweed (Convolvulus arvensis); test: Test C; parameters: key: 0 was no effect; 100 was complete control; conditions: PREEMERGENCE
[7] = tested on: purple nutsedge (Cyperus rotundus); test: Test C; parameters: key: 0 was no effect; 100 was complete control; conditions: PREEMERGENCE
rice (Oryza sativa) = test: Test B flood test; conditions: for Rice plant response rating: Postemergence section (flood test species)
Summary of the method: (§2)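 Read-out is a visual response score from 0 (no effect) to 10 (complete control), assigned by comparison with untreated controls. Treatment was applied at the 2-leaf stage, and plants stayed in the greenhouse for twelve to sixteen days before scoring.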

[8] = tested on: duck salad (Heteranthera limosa); test: Test B flood test
Summary of the method: as §2

[9] = tested on: smallflower flatsedge (Cyperus difformis); test: Test B flood test; conditions: for S. Flatsedge plant response rating: Postemergence section (flood test species)
Summary of the method: as §2

[10] = tested on: bamyardgrass (Echinochloa crus-galli); test: Test B flood test
Summary of the method: as §2

[11] = Rate 62 g/ha, Postemergence (flood test)
[12] = Rate 125 g/ha, Postemergence, flood test
[13] = Rate 250 g/ha, Postemergence (flood test species)
[14] = Rate 250 g/ha, Postemergence as printed in head r139 (second section for compounds 26-50)
[15] = Rate 250 g/ha, Postemergence (so in the source)

| Structure (SMILES) | Plant response rating, B. signalgrass ([1]; Rate 62 g/ha, Postemergence) | B. signalgrass plant response rating ([1]; Rate 62 g/ha, Preemergence) | Plant response rating, B. signalgrass ([1]; Rate 125 g/ha, Postemergence) | B. signalgrass plant response rating ([1]; Rate 125 g/ha, Preemergence) | Plant response rating, B. signalgrass ([1]; Rate 250 g/ha, Postemergence) | Plant response rating, Blackgrass ([2]; Rate 62 g/ha, Postemergence) | Blackgrass plant response rating ([2]; Rate 62 g/ha, Preemergence) | Plant response rating, Blackgrass ([2]; Rate 125 g/ha, Postemergence) | Blackgrass plant response rating ([2]; Rate 125 g/ha, Preemergence) | Plant response rating, Blackgrass ([2]; Rate 250 g/ha, Postemergence) | Plant response rating, Cotton ([3]; Rate 35 g/ha) | Plant response rating, Cotton ([3]; Rate 70 g/ha) | Plant response rating, Cotton ([3]; Rate 140 g/ha) | Plant response rating, Common ragweed ([5]; Rate 35 g/ha) | Plant response rating, Common ragweed ([5]; Rate 70 g/ha) | Plant response rating, Common ragweed ([5]; Rate 140 g/ha) | Plant response rating, Field bindweed ([6]; Rate 35 g/ha) | Plant response rating, Field bindweed ([6]; Rate 70 g/ha) | Plant response rating, Field bindweed ([6]; Rate 140 g/ha) | Plant response rating, Purple nutsedge ([7]; Rate 35 g/ha) | also measured |
| --- | --- | --- | --- | --- | --- | --- | --- | --- | --- | --- | --- | --- | --- | --- | --- | --- | --- | --- | --- | --- | --- |
| COc1cnc(-c2ccc(C(F)(F)F)cc2)nc1Cc1cccc(C(F)(F)F)c1 [Compound 23] | 4 | 9 | 5 | 9 | 9 | 6 | 6 | 7 | 9 | 9 | 5 | 75 | 75 | 10 | 30 | 90 | 20 | 100 | 100 | 0 | Plant response rating, B. signalgrass ([1]; Rate 250 g/ha, Preemergence): 9; Plant response rating, Blackgrass ([2]; Rate 250 g/ha, Preemergence): 9; Plant response rating, Cocklebur ([4]; Rate 140 g/ha): 5; Plant response rating, Purple nutsedge ([7]; Rate 70 g/ha): 0; Plant response rating, Purple nutsedge ([7]; Rate 140 g/ha): 0; Plant response rating, Rice (rice (Oryza sativa); [11]): 3; Plant response rating, Rice (rice (Oryza sativa); [12]): 4; Plant response rating, Rice (rice (Oryza sativa); [13]): 5; Plant response rating, Ducksalad [8, 11]: 2; Plant response rating, Ducksalad [8, 12]: 4; Plant response rating, Ducksalad [8, 13]: 6; Plant response rating, S. Flatsedge [9, 11]: 4; Plant response rating, S. Flatsedge [9, 12]: 8; Plant response rating, S. Flatsedge [9, 13]: 9; Plant response rating, Barnyardgrass [10, 11]: 4; Plant response rating, Barnyardgrass [10, 12]: 5; Plant response rating, Barnyardgrass [10, 13]: 6 |
| Cc1cnc(-n2ccc(C(F)(F)F)n2)nc1Cc1cccc(OC(F)(F)F)c1 [Compound 42] | 6 | 9 | 7 | 9 | 7 | 6 | 6 | 7 | 10 | 7 | 30 | 60 | 60 | 20 | 85 | 85 | 95 | 100 | 100 | 0 | Plant response rating, B. signalgrass [1, 14]: 10; Plant response rating, Blackgrass [2, 15]: 10; Plant response rating, Cocklebur ([4]; Rate 35 g/ha): 0; Plant response rating, Cocklebur ([4]; Rate 140 g/ha): 60; Plant response rating, Purple nutsedge ([7]; Rate 70 g/ha): 0; Plant response rating, Purple nutsedge ([7]; Rate 140 g/ha): 0; Plant response rating, Rice (rice (Oryza sativa); [11]): 4; Rice plant response rating (rice (Oryza sativa); Rate 125 g/ha): 6; Plant response rating, Rice (rice (Oryza sativa); [13]): 6; Plant response rating, Ducksalad [8, 11]: 1; Plant response rating, Ducksalad [8, 12]: 8; Plant response rating, Ducksalad [8, 13]: 8; Plant response rating, S. Flatsedge [9, 11]: 9; S. Flatsedge plant response rating ([9]; Rate 125 g/ha): 9; Plant response rating, S. Flatsedge [9, 13]: 9; Plant response rating, Barnyardgrass [10, 11]: 4; Plant response rating, Barnyardgrass [10, 12]: 4; Plant response rating, Barnyardgrass [10, 13]: 5 |
| Cc1cnc(-n2cnc(C(F)(F)F)n2)nc1Cc1cccc(C(F)(F)F)c1 [Compound 43] | 4 | 5 | 4 | 9 | 6 | 5 | 2 | 6 | 5 | 8 | 0 | 0 | 10 | 0 | 40 | 50 | 100 | 100 | 100 | 0 | Plant response rating, B. signalgrass [1, 14]: 9; Plant response rating, Blackgrass [2, 15]: 8; Plant response rating, Cocklebur ([4]; Rate 35 g/ha): 0; Plant response rating, Purple nutsedge ([7]; Rate 70 g/ha): 0; Plant response rating, Purple nutsedge ([7]; Rate 140 g/ha): 0; Plant response rating, Rice (rice (Oryza sativa); [11]): 4; Rice plant response rating (rice (Oryza sativa); Rate 125 g/ha): 6; Plant response rating, Rice (rice (Oryza sativa); [13]): 7; Plant response rating, Ducksalad [8, 11]: 8; Plant response rating, Ducksalad [8, 12]: 9; Plant response rating, Ducksalad [8, 13]: 9; Plant response rating, S. Flatsedge [9, 11]: 9; S. Flatsedge plant response rating ([9]; Rate 125 g/ha): 9; Plant response rating, S. Flatsedge [9, 13]: 9; Plant response rating, Barnyardgrass [10, 11]: 4; Plant response rating, Barnyardgrass [10, 12]: 4; Plant response rating, Barnyardgrass [10, 13]: 5 |
